# Measured values from patent US20240115654A1, “INTRAVENOUS ADMINISTRATION OF ENGINEERED ANTIMICROBIAL AMPHIPHILIC PEPTIDES” (priority 2021, published 2024).
# Where “and” joins values, the source holds several entries; their conditions need not be identical. Equal entries are not always repeated. Where two headings read alike, the source gives them in different places. Peptide text beside a SMILES is read from it.
# [1] = Cohort 1, 0.05 mg/kg IV infusion, Geometric Mean
# [2] = Cohort 1, 0.05 mg/kg IV infusion, Max
# [3] = Cohort 1, 0.05 mg/kg IV infusion, Mean
# [4] = Cohort 1, 0.05 mg/kg IV infusion, Median
# [5] = Cohort 1, 0.05 mg/kg IV infusion, Min
# [6] = Cohort 1, 0.05 mg/kg IV infusion, cohort Geometric Mean
# [7] = Cohort 1, 0.05 mg/kg IV infusion, cohort Mean
# [8] = Cohort 1, 0.05 mg/kg IV infusion, cohort Median
# [9] = Cohort 1, 0.05 mg/kg IV infusion, individual subject
# [10] = Cohort 1, 0.05 mg/kg IV infusion, individual subjects
# [11] = Cohort 3b and 4 section: over the 10-fold increase in dose
# [12] = Cohort 3b and 4 section: over the […] increase in dose
# [13] = Cohort 3b, […] IV infusion 2 hours, Max
# [14] = Cohort 3b, […] IV infusion 2 hours, Min
# 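Further: phase 1 study in human subjects given one IV dose of the peptide, enrolled in sequential ascending-dose cohorts and randomized to peptide or placebo.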
smiles,measurement,setting,value
CC(C)[C@H](NC(=O)[C@H](Cc1c[nH]c2ccccc12)NC(=O)[C@H](CCCNC(=N)N)NC(=O)[C@H](CCCNC(=N)N)NC(=O)[C@@H](NC(=O)[C@@H](NC(=O)[C@H](CCCNC(=N)N)NC(=O)[C@@H](NC(=O)[C@@H](NC(=O)[C@H](CCCNC(=N)N)NC(=O)[C@H](CCCNC(=N)N)NC(=O)[C@H](Cc1c[nH]c2ccccc12)NC(=O)[C@@H](NC(=O)[C@H](CCCNC(=N)N)NC(=O)[C@H](CCCNC(=N)N)NC(=O)[C@@H](NC(=O)[C@H](CCCNC(=N)N)NC(=O)[C@H](CCCNC(=N)N)NC(=O)[C@@H](NC(=O)[C@H](Cc1c[nH]c2ccccc12)NC(=O)[C@H](CCCNC(=N)N)NC(=O)[C@@H](N)CCCNC(=N)N)C(C)C)C(C)C)C(C)C)C(C)C)C(C)C)C(C)C)C(C)C)C(=O)N[C@@H](CCCNC(=N)N)C(=O)N[C@@H](CCCNC(=N)N)C(N)=O [SEQ ID NO: 1] (H-RRWVRRVRRVWRRVVRVVRRWVRR-NH2),"Plasma Concentration by Nominal Time from Start of Infusion, Mean","Cohort 1, 0.05 mg/kg IV 1-hr infusion, 49 h, cohort mean",0.00 ng/mL
same,Plasma Concentration by Nominal Time from Start of Infusion,"Cohort 1, 0.05 mg/kg IV 1 hr infusion, 0.0 h, individual subjects",0.00 ng/mL
same,Plasma Concentration by Nominal Time from Start of Infusion,"Cohort 1, 0.05 mg/kg IV 1 hr infusion, 9.0 h, individual subjects",63.2 ng/mL
same,Plasma Concentration by Nominal Time from Start of Infusion,"Cohort 1, 0.05 mg/kg IV 1 hr infusion, 13 h, individual subjects",32.9 ng/mL
same,Plasma Concentration by Nominal Time from Start of Infusion,"Cohort 1, 0.05 mg/kg IV 1 hr infusion, 21 h, individual subjects",0.00 ng/mL
same,Plasma Concentration by Nominal Time from Start of Infusion,"Cohort 1, 0.05 mg/kg IV 1 hr infusion, 25 h, individual subjects",0.00 ng/mL
same,Plasma Concentration by Nominal Time from Start of Infusion,"Cohort 1, 0.05 mg/kg IV 1 hr infusion, 37 h, individual subjects",0.00 ng/mL
same,"Plasma Concentration by Nominal Time from Start of Infusion, Mean","Cohort 1, 0.05 mg/kg IV 1 hr infusion, 49 h, cohort mean N 6",0.00 ng/mL
same,Plasma Concentration by Nominal Time from Start of Infusion,"Cohort 1, 0.05 mg/kg IV 1 hr infusion, 49 h, individual subjects",0.00 ng/mL
same,AUCextrap,[1],8.36%
same,CL/F,[1],0.522 mL/min/kg
same,Tlast,[1],24 h
same,λz,[1],0.0946 h⁻¹
same,AUC0-24,[2],1610 ng·h/mL
same,AUC(0-inf),[2],1820 ng·h/mL
same,AUC(0-t),[2],1720 ng·h/mL
same,AUCextrap,[2],12.1%
same,CL/F,[2],0.595 mL/min/kg
same,Cmax,[2],341 ng/mL
same,Tlast,[2],37 h
same,t1/2,[2],8.59 h
same,λz,[2],0.105 h⁻¹
same,AUCextrap,[3],8.87%
same,CL/F,[3],0.525 mL/min/kg
same,Tlast,[3],25 h
same,λz,[3],0.0950 h⁻¹
same,AUCextrap,[4],8.12%
same,Tlast,[4],25 h
same,λz,[4],0.0951 h⁻¹
same,AUC0-24,[5],619 ng·h/mL
same,AUC(0-t),[5],515 ng·h/mL
same,AUCextrap,[5],4.54%
same,CL/F,[5],0.457 mL/min/kg
same,Cmax,[5],170 ng/mL
same,Tlast,[5],13 h
same,t1/2,[5],6.62 h
same,λz,[5],0.0807 h⁻¹
same,AUCextrap,[6],8.36%
same,CL/F,[6],0.522 mL/min/kg
same,Tlast,[6],24 h
same,λz,[6],0.0946 h⁻¹
same,AUCextrap,[7],8.87%
same,CL/F,[7],0.525 mL/min/kg
same,Tlast,[7],25 h
same,λz,[7],0.0950 h⁻¹
same,AUCextrap,[8],8.12%
same,Tlast,[8],25 h
same,λz,[8],0.0951 h⁻¹
same,AUC(0-inf),[9],1490 ng·h/mL and 1800 ng·h/mL and 1820 ng·h/mL
same,CL/F,[9],0.595 mL/min/kg and 0.562 mL/min/kg
same,AUC(0-inf),[10],1490 ng·h/mL and 1800 ng·h/mL and 1820 ng·h/mL
same,Tlast,[10],25 h (4×) and 13 h and 37 h
same,CL/F,"Cohort 2, […] IV infusion, Max",1.44 mL/min/kg
same,t1/2,"Cohort 2, […] IV infusion, Max",15.5 h
same,CL/F,"Cohort 2, […] IV infusion, Mean",0.878 mL/min/kg
same,CL/F,"Cohort 2, […] IV infusion, Median",0.82 mL/min/kg
same,CL/F,"Cohort 2, […] IV infusion, Min",0.322 mL/min/kg
same,t1/2,"Cohort 2, […] IV infusion, Min",7.51 h
same,CL/F,"Cohort 2, […] IV infusion, cohort Mean",0.878 mL/min/kg
same,CL/F,"Cohort 2, […] IV infusion, cohort Median",0.82 mL/min/kg
same,CL/F,"Cohort 3, […] IV infusion, Geometric Mean",0.91 mL/min/kg
same,CL/F,"Cohort 3, […] IV infusion, Max",4.3 mL/min/kg
same,t1/2,"Cohort 3, […] IV infusion, Max",21.8 h
same,CL/F,"Cohort 3, […] IV infusion, Mean",1.4 mL/min/kg
same,CL/F,"Cohort 3, […] IV infusion, Min",0.295 mL/min/kg
same,t1/2,"Cohort 3, […] IV infusion, Min",5.80 h
same,CL/F,"Cohort 3, […] IV infusion, cohort Geometric Mean",0.91 mL/min/kg
same,CL/F,"Cohort 3, […] IV infusion, cohort Mean",1.4 mL/min/kg
same,increase of AUC0-t,[11],6.4 fold
same,increase of mean AUC0-24,[11],5.8 fold
same,increase of mean Cmax,[11],7.1 fold
same,increase of AUC0-t,[12],4.2 fold
same,increase of mean AUC0-24,[12],3.7 fold
same,increase of mean Cmax,[12],3.7 fold
same,CL/F,"Cohort 3b, […] IV infusion 2 hours, Geometric Mean",0.748 mL/min/kg
same,CL/F,[13],1.36 mL/min/kg
same,t1/2,[13],17.5 h
same,CL/F,"Cohort 3b, […] IV infusion 2 hours, Mean",0.795 mL/min/kg
same,CL/F,"Cohort 3b, […] IV infusion 2 hours, Median",0.76 mL/min/kg
same,CL/F,[14],0.415 mL/min/kg
same,t1/2,[14],9.72 h
same,CL/F,"Cohort 3b, […] IV, infusion 2 hours, cohort Geometric Mean",0.748 mL/min/kg
same,CL/F,"Cohort 3b, […] IV, infusion 2 hours, cohort Mean",0.795 mL/min/kg
same,CL/F,"Cohort 3b, […] IV, infusion 2 hours, cohort Median",0.76 mL/min/kg
same,"Plasma Concentration by Nominal Time from Start of Infusion, Mean","Cohort 4, 0.5 mg/kg IV 2-hr infusion, 0.0 h, cohort mean",0.00 ng/mL
same,AUCextrap,"Cohort 4, 0.5 mg/kg IV infusion 2 hours, Geometric Mean",7.38%
same,AUC0-24,"Cohort 4, 0.5 mg/kg IV infusion 2 hours, Max",10400 ng·h/mL
